Results on one compound are retold here after paper PMC6143478, “Lipophilic activated ester prodrug approach for drug delivery to the intestinal lymphatic system” (Journal of Controlled Release, 2018).

By half-life is commonly meant the time needed for the level to fall by half in the phase considered.

A short description of data set [1]: Biodistribution to mesenteric lymph nodes (MLN) and lymph following oral administration in rats. Type of data set: in vivo. The conditions noted are these: dose equivalent to 10 mg/kg BEX, rat; for Kp: male, Sprague Dawley, intact prodrug. As to the method:
The protocols for pharmacokinetic and biodistribution experiments in this study were reviewed and approved by the University of Nottingham Ethical Review Committee in accordance with the Animals [Scientific Procedures] Act 1986. Male Sprague Dawley rats (Charles River Laboratories, UK) weighing 350–380 g were used. The animals were housed in the Bio Support Unit, University of Nottingham. Continuous lymph collection was performed according to a protocol approved by the Institutional Animal Care and Use Committee at Rutgers, The State University of New Jersey. Male Sprague Dawley rats (Envigo, Inc., NJ, USA) weighing 300–350 g were used for the continuous lymph collection. Animals were allowed free access to food and water and were acclimatised for at least 6 days prior to any procedures at both institutions in a controlled-temperature environment with 12 h light/dark cycles.
Formulations were prepared as described in the above pharmacokinetic study and were delivered by an oral gavage. Animals were euthanised at pre-determined time points. Blood was collected from the posterior vena cava and lymph samples were taken from the mesenteric lymph duct. MLNs were dissected and collected as previously described. The MLNs were isolated from surrounding tissue with care not to compromise the integrity of the lymph nodes. The MLNs were homogenised (POLYTRON® PT 10–35 GT, Kinematica AG, Luzern, Switzerland) with 10 mg/mL NaF in water (1,2, w/v) on an ice bath prior to sample preparation for HPLC analysis.
A combination of protein precipitation and liquid-liquid extraction was applied to samples prior to HPLC injection. To 100 μL sample, 300 μL of acetonitrile was added for protein precipitation and then 300 μL of pH modifier was added when necessary (Supplementary Material Table S2). […] The organic layer was separated and evaporated under N2 gas. Reconstitution solvent (100 μL) was used as detailed in Supplementary Material Table S2 and 40 μL was injected into the HPLC-UV system. […] Therefore, storage and preparation of all samples were performed within the time frame and conditions of confirmed stability.
The HPLC-UV system consisting of a separation module (Waters Alliance 2695) equipped with a UV detector (Waters 996) was used for analysis. Samples in the autosampler were maintained at 4 °C and the column at 40 °C. The stationary and mobile phases were used as specified in Supplementary Material Table S2. BEX and its prodrugs were detected at 259 nm and RA and its prodrugs at 357 nm.

Another data set relates to human chylomicrons (CM). Nature of the data set: Ex vivo association with human plasma-derived chylomicrons. The conditions noted are these: 1.755 μM, 37 °C, 1 h; in words, relative to parent drug. Type of data set: in vitro ADME. The source says: The protocol for preparation of human plasma-derived CM emulsion was approved by the Faculty of Medicine and Health Sciences Research Ethics Committee, Queens Medical Centre, Nottingham University Hospitals (BT12102015 CBS SoP). Healthy male volunteers of 19–40 years old and with body mass index of 18.5–25.0 were enrolled in the study after providing informed consent. The participants were excluded if any medication was used within one week prior to enrolment. On the morning of the study, participants received a high-fat meal (equivalent to a full English breakfast). Between 3 and 4 h following breakfast, 30 mL of blood was collected using heparinised tubes (Vacutainer® Blood Collection Tubes) and centrifuged (800 g, 10 min, 15 °C) to obtain plasma.
CM separation was performed as previously reported with minor modifications. Briefly, KBr (0.57 g) was mixed with 4 mL of plasma to yield density of 1.1 g/mL. PBS with densities of 1.006, 1.019, and 1.063 g/mL were prepared by adding appropriate amounts of KBr. These PBS of different densities were layered on top of the plasma to build density gradient layers in polyallomer ultracentrifuge tubes. The samples were then centrifuged at 268,350 g for 35 min at 15 °C using an ultracentrifuge (SORVALL® TH-641 Rotor, Thermo Fisher Scientific, UK). Following ultracentrifugation, approximately 1 mL of the upper layer containing CM was collected. TG concentration of CM emulsion was assessed using the TG enzymatic kit (Sigma Aldrich, Dorset, UK). TG concentration of the emulsion was adjusted to 100 mg/dL by diluting with PBS of 1.006 g/mL density. The CM emulsion was stored at 4 °C until the association assay (˂24 h).
The association of the compounds with artificial lipid particle emulsion and human CM was assessed using previously reported methodology with minor modifications. Briefly, 1 mL of artificial lipid particle or CM emulsions (TG concentration 100 mg/dL) was used for the association assay. The emulsion was spiked with stock solutions of tested compounds (in acetonitrile) to give a final concentration of 1.755 μM. The reaction mixtures were incubated at 37 °C for 1 h with magnetic stirring at 300 rpm. Following the incubation, density gradient ultracentrifugation was applied as described above to isolate the artificial lipid particles or CM associated with the tested compounds from the rest of the experimental medium. All experiments were conducted in quintuplicates or above.

Data set [2] can be described thus: Prodrug conversion assay in rat plasma. It is filed as in vitro ADME. As to the method:
The prodrugs were tested for their stability and conversion into their corresponding active drug using fasted state simulated intestinal fluid (FaSSIF) with added esterase enzyme activity (20 IU/mL), rat plasma, and postprandial rat lymph. The FaSSIF was prepared as previously described in the literature. The medium was pre-heated to 37 °C prior to the assay for 5 min. The experiment was initiated by spiking stock solutions of prodrugs to give a final concentration of 10 μM of the prodrugs in the medium. When the stability of the artificial emulsion-associated prodrugs was tested in plasma, the association of compounds with artificial emulsion was performed prior to stability experiments and the concentrations of the compounds in the associated emulsion were measured. The emulsion was then spiked to give a concentration of 10 μM of the prodrugs in plasma. The reaction mixtures were incubated at 37 °C and shaken at 200 rpm on a temperature-controlled orbital shaker (Thermo Scientific MaxQ4000, Waltham, MA, USA) for 4 h. Samples were withdrawn at pre-determined time points, and the reaction was terminated by addition of acetonitrile. The samples were then subjected to sample preparation and analysis as described below. The natural log percentage of the prodrug concentration was plotted against incubation time, and the slope (k) was obtained from the plot. Half-life of active drug release (t1/2) was calculated by the following equation: t1/2 = −0.693/k. All experiments were conducted in triplicate.

Like-named read-outs stand apart in the source and are kept apart here.

Take `C=C(c1ccc(C(=O)OCC)cc1)c1cc2c(cc1C)C(C)(C)CCC2(C)C` [prodrug 2]: the “concentrations of BEX in intestinal lymphatics (MLNs, lymph) relative to plasma” value in data set [1] (BEX analyte, in words) is “comparable between the three matrices”. In addition, the Kp worked out at 41 in data set [1] (mesenteric lymph / plasma, read-out: concentration of prodrug in lymph compared to plasma) and 6 in data set [1] (mesenteric lymph nodes (MLN) / plasma, read-out: concentration of prodrug in MLNs compared to plasma). Further, in the data set on human chylomicrons (CM), the “association with human chylomicrons (CM)” value is “equally high affinity to CM”. Moreover, the “conversion of emulsion-associated form of prodrug in rat plasma” value in data set [2] (prodrug incorporated into Intralipid lipid particles, 10 μM, relative to free form) is “delayed conversion”. Also, the half-life at 10 μM in data set [2] (rat, plasma, in vitro, 37 °C, free form, read-out: half-life of active drug release in rat plasma) turned out to be 20 min.
